Test results reported in ChEMBL document CHEMBL5584338, “Design, Synthesis, and Biological Evaluation of 5-Amino-4-fluoro-1H-benzo[d]imidazole-6-carboxamide Derivatives as Novel and Potential MEK/RAF Complex Inhibitors Based on the "Clamp" Strategy” (J Med Chem, 2024).
Active and inactive are the calls of the source. The rule behind the calls is not given here.

Experiments:
[1] = Antiproliferative activity against rat H9c2 cells incubated for 72 hrs by CCK8 assay; type: toxicity, cell-based
[2] = Antiproliferative activity against mouse C26 cells harboring KRAS G12D mutant incubated for 72 hrs by CCK8 assay; type: functional, cell-based, C-26; settings: C26, 72 h
MIA PaCa-2 [3] = assay: Antiproliferative activity against human MIA PaCa-2 cells harboring KRAS G12C mutant at 0.1 uM incubated for 72 hrs by CCK8 assay relative to control; type: functional
[4] = target: T1, Dual specificity mitogen-activated protein kinase kinase 1 (Homo sapiens, UniProt Q02750); assay: Inhibition of MEK1 (unknown origin) assessed as remaining activity at 0.1 uM relative to control
[5] = Inhibition of BRAF […] mutant (unknown origin); parameters: species or system Homo sapiens
[6] = target: T2, Serine/threonine-protein kinase B-raf (Homo sapiens, UniProt P15056); assay: Inhibition of BRAF (unknown origin) assessed as remaining activity at 0.1 uM relative to control
HeLa = assay: Antiproliferative activity against human HeLa cells incubated for 72 hrs by CCK8 assay; type: functional, cell-based
[7] = target: T1, Dual specificity mitogen-activated protein kinase kinase 1; assay: Inhibition of MEK1 (unknown origin)
HCT-116 [8] = assay: Antiproliferative activity against human HCT-116 cells harboring KRAS G13D mutant at 1 uM incubated for 72 hrs by CCK8 assay relative to control; type: functional
[9] = target: T2, Serine/threonine-protein kinase B-raf; assay: Inhibition of BRAF (unknown origin)
MIA PaCa-2 [10] = assay: Antiproliferative activity against human MIA PaCa-2 cells harboring KRAS G12C mutant incubated for 72 hrs by CCK8 assay; type: functional, cell-based; settings: MIA PaCa-2, 72 h
HCT-116 [11] = assay: Antiproliferative activity against human HCT-116 cells harboring KRAS G13D mutant incubated for 72 hrs by CCK8 assay; type: functional, cell-based; settings: HCT-116, 72 h
[12] = Stability in human liver microsomes assessed as half life at 200 uM preincubated for 5 mins followed by NADPH addition measured upto 60 mins by LC-MS/MS analysis; type: ADME, Microsome; settings: time 65 min
[13] = tested on: Mitogen-activated protein kinase 1/3 (ERK1/2) (Homo sapiens); assay: Inhibition of ERK phosphorylation in human MIA PaCa-2 cells upto 1 uM incubated for 4 hrs by Western blot analysis
[14] = target: Dual specificity mitogen-activated protein kinase kinase; MEK1/2 (Homo sapiens) (UniProt P36507+Q02750); assay: Inhibition of MEK phosphorylation in human MIA PaCa-2 cells upto 1 uM incubated for 4 hrs by Western blot analysis; type: cell-based
Sequence of Dual specificity mitogen-activated protein kinase kinase; MEK1/2 (Homo sapiens) (P36507 whole entry, looked up): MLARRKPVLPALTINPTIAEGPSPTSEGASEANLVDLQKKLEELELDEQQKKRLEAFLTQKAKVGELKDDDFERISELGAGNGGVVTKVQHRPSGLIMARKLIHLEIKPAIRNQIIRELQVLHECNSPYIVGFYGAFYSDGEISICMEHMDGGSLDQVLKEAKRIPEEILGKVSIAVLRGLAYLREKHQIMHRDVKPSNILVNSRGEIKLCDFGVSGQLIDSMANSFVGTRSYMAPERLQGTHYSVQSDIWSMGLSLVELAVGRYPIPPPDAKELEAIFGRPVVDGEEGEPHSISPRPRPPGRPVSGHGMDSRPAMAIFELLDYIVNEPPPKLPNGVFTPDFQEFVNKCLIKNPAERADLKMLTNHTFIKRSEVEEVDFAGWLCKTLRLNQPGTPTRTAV
Sequence of Dual specificity mitogen-activated protein kinase kinase; MEK1/2 (Homo sapiens) (Q02750 whole entry, looked up): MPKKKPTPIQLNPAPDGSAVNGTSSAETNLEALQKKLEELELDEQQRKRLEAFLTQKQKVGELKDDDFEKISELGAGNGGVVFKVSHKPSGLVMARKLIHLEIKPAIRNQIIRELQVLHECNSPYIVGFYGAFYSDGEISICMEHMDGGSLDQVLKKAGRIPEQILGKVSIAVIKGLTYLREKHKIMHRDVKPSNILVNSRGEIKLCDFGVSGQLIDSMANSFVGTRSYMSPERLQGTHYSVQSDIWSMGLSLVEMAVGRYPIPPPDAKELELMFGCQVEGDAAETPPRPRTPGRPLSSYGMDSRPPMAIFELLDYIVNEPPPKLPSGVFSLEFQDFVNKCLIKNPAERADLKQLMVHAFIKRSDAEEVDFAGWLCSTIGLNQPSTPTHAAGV

T2 sequence (P15056 whole entry): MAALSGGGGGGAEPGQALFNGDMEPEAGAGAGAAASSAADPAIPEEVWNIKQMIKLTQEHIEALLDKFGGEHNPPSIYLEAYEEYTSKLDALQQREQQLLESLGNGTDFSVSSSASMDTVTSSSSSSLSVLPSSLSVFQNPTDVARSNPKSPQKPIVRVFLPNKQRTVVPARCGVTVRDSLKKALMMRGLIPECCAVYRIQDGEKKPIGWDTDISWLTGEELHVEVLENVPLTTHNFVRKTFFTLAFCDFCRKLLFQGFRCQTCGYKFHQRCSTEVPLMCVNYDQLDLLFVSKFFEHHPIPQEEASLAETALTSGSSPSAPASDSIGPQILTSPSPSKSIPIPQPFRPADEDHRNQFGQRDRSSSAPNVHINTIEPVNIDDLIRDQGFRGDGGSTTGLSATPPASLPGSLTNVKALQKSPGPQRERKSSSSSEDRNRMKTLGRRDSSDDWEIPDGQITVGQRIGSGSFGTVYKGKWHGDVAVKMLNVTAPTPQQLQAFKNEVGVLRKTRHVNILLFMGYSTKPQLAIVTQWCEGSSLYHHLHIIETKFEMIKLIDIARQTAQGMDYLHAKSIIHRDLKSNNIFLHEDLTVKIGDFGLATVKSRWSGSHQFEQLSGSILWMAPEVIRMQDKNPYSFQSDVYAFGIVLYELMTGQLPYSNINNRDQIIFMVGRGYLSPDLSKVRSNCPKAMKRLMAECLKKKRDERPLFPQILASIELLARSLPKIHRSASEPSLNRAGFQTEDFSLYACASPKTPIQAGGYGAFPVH
T1 sequence (Q02750 whole entry): as the sequence (Q02750 whole entry, looked up) above

Row | Compound | IC50 at 72 h [1] | IC50 [2] | inhibition at 0.1 µM (MIA PaCa-2 [3]) | Activity [4] | IC50 [5] | Activity [6] | IC50 (HeLa) | IC50 [7] | inhibition at 1 µM (HCT-116 [8]) | IC50 [9] | IC50 (MIA PaCa-2 [10]) | IC50 (HCT-116 [11]) | half-life at 200 µM [12] | inhibition [13] | inhibition [14]
1 | CNS(=O)(=O)Nc1cccc(Cn2cnc3c(F)c(Nc4ccc(C5CC5)cc4F)c(C(=O)NOCCO)cc32)c1 | > 50 µM | 0.152 µM | 53.1% | 58% | 0.016 µM | 5% | > 10 µM | 0.119 µM | 52.8% | 0.005 µM | 0.114 µM | 0.223 µM | – | – | –
2 | CCNS(=O)(=O)Nc1cccc(Cn2cnc3c(F)c(Nc4ccc(C5CC5)cc4F)c(C(=O)NOCCO)cc32)c1 | > 50 µM | 0.226 µM | 78.8% | 46% | 0.008 µM | 0% | > 10 µM | 0.074 µM | 60.4% | 0.007 µM | 0.023 µM | 0.123 µM | 47.5 min | Active | –
3 | CNS(=O)(=O)Nc1cccc(Cn2cnc3c(F)c(Nc4ccc(C5CC5)cc4F)c(C(=O)NOCCO)cc32)c1F | > 50 µM | 0.056 µM | 75.9% | 40% | 0.005 µM | -4% | > 10 µM | 0.042 µM | 61.2% | 0.004 µM | 0.015 µM | 0.183 µM | 37.7 min | Active | Active
